Results taken from publication PMC9370166, “In Vitro and In Vivo Antibacterial Activity, Toxicity and Resistance Analysis of Pleuromutilin Derivative Z33 against Methicillin-Resistant Staphylococcus aureus” (Molecules, 2022).
Values after ≈ are worked out from the molar mass of the structure shown. Read-outs that look alike come from different tables or passages of the source.

Experiments:
[1] = test system: S. aureus clinical strain AD3; assay: MIC and MBC determination (broth microdilution); type: cell-based; settings: Staphylococcus aureus; for MIC: first value of cell; for MBC: second value of cell
Method: (§1) The MIC values of Z33 against MRSA ATCC 43300 and S. aureus clinical isolates were measured according to the broth microdilution guidelines provided by the Clinical and Laboratory Standards Institute (CLSI). S. aureus ATCC 29213 was used as the quality control strain, and the quality control range was referred to the CLSI. The MIC value is defined as the lowest concentration of the compounds with no visible growth of bacteria. The MIC assay was independently repeated three times.
(§2) The MBC values of antibacterial agents were measured after incubation at 37 °C for 24 h. Briefly, 100 µL of bacterial solution from the three wells behind the corresponding well of MIC was absorbed and spread on the Mueller–Hinton Agar (MHA). The MBC refers to the lowest concentration corresponding to the amount of colony-forming unit (CFU) ≤ 5 on the medium after 18~24 h of incubation at 37 °C.

[2] = test system: S. aureus clinical strain 144; assay: MIC and MBC determination (broth microdilution); type: cell-based; settings: Staphylococcus aureus; for MIC: first value of cell; for MBC: second value of cell
Method: as §1, §2

MRSA ATCC 43300 [3] = assay: MIC and MBC determination (broth microdilution); type: cell-based; settings: Staphylococcus aureus; for MIC: first value of MIC/MBC cell; for MBC: second value of MIC/MBC cell
Method: as §1, §2

S. aureus ATCC 29213 [4] = assay: MIC and MBC determination (broth microdilution); type: cell-based; settings: Staphylococcus aureus; for MIC: ATCC29213, first value of cell; for MBC: ATCC29213, second value of cell
Method: as §1, §2

MRSA ATCC 43300 [5] = assay: Neutropenic mouse thigh infection model; type: in vivo, mice; settings: 20 mg/kg intravenous
Method: The neutropenic mouse thigh infection model was used to determine the in vivo antibacterial activity of Z33 [23]. Briefly, female mice were rendered neutropenic (neutrophil count ≤ 100/mm^3) via intraperitoneal injection of cyclophosphamide on day 4 (150 mg/kg) and day 1 (100 mg/kg) before infection. MRSA ATCC 43300 cells were collected in the logarithmic phase and resuspended in 0.9% saline. The thigh infection model was established by injection of 100 μL of MRSA suspension (10^7 CFU/mL) into the posterior thighs of mice. After 2 h post-infection, mice were intravenously injected with tiamulin and Z33 at a dose of 20 mg/kg, and the untreated groups were administrated with an equal amount of saline. Mice were euthanized after treatment of 22 h, thigh tissue was aseptically collected, weighed, homogenized, and serially diluted in saline, respectively. CFU counts were determined by the flat colony counting method.

[6] = test system: S. aureus clinical strain AD3; assay: Determination of MPC (mutant prevention concentration); type: cell-based, Staphylococcus aureus
Method: (§3) The drug-resistant tendency suppression potential of Z33 and tiamulin was determined as described with minor modifications. In the test, for each S. aureus strain, 4 mL of overnight cultures were inoculated into 100 mL of fresh BHI broth and then incubated for 4.5 h at 37 °C with shaking (210 rpm). Cultures were centrifuged at 5000 r/min for 10 min. The supernatant was discarded and resuspended in the 4 mL of saline to achieve a bacterial density of ~3 × 10^10 CFU/mL. In total, 100 μL of each culture was spread onto MHA containing various concentrations of Z33 and tiamulin. […] Plates were incubated at 37 °C for a total of 72 h and recorded every 24 h for the appearance of colonies. MPC was defined as the lowest concentration with no growth of colonies on the agar plate. MPC was carried out in triplicate.

[7] = test system: S. aureus clinical strain 144; assay: as above; type: cell-based, Staphylococcus aureus
Method: as §3

MRSA ATCC 43300 [8] = assay: as above; type: cell-based, Staphylococcus aureus
Method: as §3

S. aureus ATCC 29213 [9] = assay: as above; type: cell-based, Staphylococcus aureus
Method: as §3

CYP2E1 = target: T1, CYP2E1 (Homo sapiens, UniProt P05181); assay: CYP450 inhibition assay, human liver microsomes, chlorzoxazone probe; type: in vitro ADME; settings: human liver microsomes
T1 construct: 40 µL of the human liver microsomal enzyme (final concentration is 0.5 g/L); tissue Research Institute for Liver Diseases Co., Ltd. (Shanghai, China); host or cells: human liver microsomes
Method: (§4) The inhibition effect of Z33 and tiamulin on the human liver microsomal enzyme was determined as described in the literature with some modifications. Experiments were performed in 96-well plates with a final incubation volume of 100 μL per well. 40 µL of the human liver microsomal enzyme (final concentration is 0.5 g/L), 20 µL of probe substrate (final concentration of testosterone and chlorzoxazone is 20 µmol/L), and 20 µL of test drug were mixed in each well. After preincubation at 37 °C for 5 min, the reactions were started by the addition of 20 μL of NADPH (final concentration is 1 mmol/L). Depending on the substrate, the chlorzoxazone and testosterone groups were incubated at 37 °C for 25 min and 10 min, respectively. The reaction was terminated by adding 100 µL of acetonitrile, and then the supernatant was centrifuged to analyse by LC-MS/MS.

four S. aureus strains = assay: microbe, parasite or virus in culture; type: cell-based, Staphylococcus aureus
Method: To assess the propensity for the development of bacterial resistance, the ability of Z33 and tiamulin to induce resistance to four strains were tested, respectively. Serial passages at 37 °C were performed daily in BHI broth containing sub-MIC concentration (1/4 MIC) of Z33 and tiamulin. The MIC values were daily determined and recorded by the broth microdilution method. A duration of 13 passages was performed in every case.

CYP3A4 = target: T2, CYP3A4 (Homo sapiens, UniProt P08684); assay: CYP450 inhibition assay, human liver microsomes, testosterone probe; type: in vitro ADME
T2 construct: 40 µL of the human liver microsomal enzyme (final concentration is 0.5 g/L); tissue Research Institute for Liver Diseases Co., Ltd. (Shanghai, China); host or cells: human liver microsomes
Method: as §4

RAW264.7 cells = assay: Cytotoxicity test (MTT assay); type: cell-based; settings: concentrations less than 5 μg/mL, 24 h, MTT
Method: (§5) To assess the effects of tiamulin and Z33 on the viability of RAW264.7 macrophages, the MTT assay was performed according to previous reports. […] After discarding the MTT solution, DMSO (150 μL) was added to each well to dissolve all crystals. OD490nm was recorded using EnSight Multimode Plate Reader (PerkinElmer, […], USA).

[10] = Cytotoxicity test (MTT assay); type: cell-based; settings: mouse, RAW264.7 macrophages, RAW264.7, MTT, tested up to 20 μg/mL
Method: as §5

T1 sequence (P05181 whole entry): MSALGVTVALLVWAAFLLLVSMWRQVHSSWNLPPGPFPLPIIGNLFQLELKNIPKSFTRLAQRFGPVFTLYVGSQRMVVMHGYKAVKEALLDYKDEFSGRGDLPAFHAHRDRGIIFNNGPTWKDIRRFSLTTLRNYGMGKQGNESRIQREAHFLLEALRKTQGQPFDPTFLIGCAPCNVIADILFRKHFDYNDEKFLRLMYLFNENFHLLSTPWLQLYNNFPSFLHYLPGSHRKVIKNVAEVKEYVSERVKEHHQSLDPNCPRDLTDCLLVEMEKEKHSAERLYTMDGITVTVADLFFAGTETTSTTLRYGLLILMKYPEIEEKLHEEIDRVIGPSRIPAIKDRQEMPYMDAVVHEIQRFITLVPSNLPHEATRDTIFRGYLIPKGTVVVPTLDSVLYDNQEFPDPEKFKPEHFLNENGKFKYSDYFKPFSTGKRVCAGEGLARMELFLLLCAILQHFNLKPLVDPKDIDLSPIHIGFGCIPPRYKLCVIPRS
T2 sequence (P08684 whole entry): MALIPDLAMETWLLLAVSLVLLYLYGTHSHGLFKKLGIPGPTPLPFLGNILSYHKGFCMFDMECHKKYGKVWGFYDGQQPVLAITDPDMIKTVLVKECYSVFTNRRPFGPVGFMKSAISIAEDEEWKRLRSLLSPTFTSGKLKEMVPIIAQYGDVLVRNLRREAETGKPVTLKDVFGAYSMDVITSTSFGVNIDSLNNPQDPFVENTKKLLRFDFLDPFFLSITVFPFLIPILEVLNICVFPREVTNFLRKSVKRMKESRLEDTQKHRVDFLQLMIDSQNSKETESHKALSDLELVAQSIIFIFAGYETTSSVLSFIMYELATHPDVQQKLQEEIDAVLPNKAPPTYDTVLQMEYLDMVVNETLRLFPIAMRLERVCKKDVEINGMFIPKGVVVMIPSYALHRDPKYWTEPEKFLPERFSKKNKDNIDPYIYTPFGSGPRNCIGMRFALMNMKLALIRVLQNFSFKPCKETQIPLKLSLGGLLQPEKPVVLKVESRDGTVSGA

C=C[C@]1(C)C[C@@H](OC(=O)CSCCN(CC)CC)[C@]2(C)[C@H](C)CC[C@]3(CCC(=O)[C@H]32)[C@@H](C)[C@@H]1O [tiamulin, reference compound]
MIC [1]: 1 µg/mL (≈ 2.03 µM)
MBC [1]: 2 µg/mL (≈ 4.05 µM)
MIC [2]: 0.5 µg/mL (≈ 1.01 µM)
MBC [2]: 2 µg/mL (≈ 4.05 µM)
MIC (MRSA ATCC 43300 [3]): 0.5 µg/mL (≈ 1.01 µM)
MBC (MRSA ATCC 43300 [3]): 1 µg/mL (≈ 2.03 µM)
MIC (S. aureus ATCC 29213 [4]): 0.5 µg/mL (≈ 1.01 µM)
MBC (S. aureus ATCC 29213 [4]): 1 µg/mL (≈ 2.03 µM)
MRSA inoculum in the thigh muscle (MRSA ATCC 43300 [5]; after treatment for 24 h): 7.655 ± 0.067 log10 CFU/g
reduction of bacterial load in the thigh muscle (MRSA ATCC 43300 [5]; versus untreated group): 0.771 log10 CFU/g
MPC [6]: 2 µg/mL
MPC [7]: 1 µg/mL
MPC (MRSA ATCC 43300 [8]): 1 µg/mL
MPC (S. aureus ATCC 29213 [9]): 1 µg/mL
IC50 (CYP2E1; Figure 6, read-out: IC50 CYP2E1 (value in plot key)): 0.184 µM
IC50 (CYP2E1; bound given in text, read-out: IC50 CYP2E1): < 0.25 µM
MIC (four S. aureus strains; Staphylococcus aureus, read-out: MICs of resistant clones): 2 to 8 µg/mL (≈ 4.05 to 16.2 µM)
fold increase in MICs (four S. aureus strains; after 13 passages): ~32 fold
passages after which resistance developed (≥ 4-fold MIC increase) (four S. aureus strains; four S. aureus strains): 3 passages
IC50 (CYP3A4): 1.6 µM
cytotoxicity on RAW264.7 cells (RAW264.7 cells): No significant cytotoxicity
IC50 at 24 h [10]: ≥ 20 µg/mL

C=C[C@]1(C)C[C@@H](OC(=O)CSC(C)(C)CNC(=O)[C@H](N)C(C)C)[C@]2(C)[C@H](C)CC[C@]3(CCC(=O)[C@H]32)[C@@H](C)[C@@H]1O [valnemulin]
MIC [1]: 0.125 µg/mL (≈ 0.221 µM)
MBC [1]: 0.125 µg/mL (≈ 0.221 µM)
MIC [2]: 0.125 µg/mL (≈ 0.221 µM)
MBC [2]: 0.25 µg/mL (≈ 0.443 µM)
MIC (MRSA ATCC 43300 [3]): 0.125 µg/mL (≈ 0.221 µM)
MBC (MRSA ATCC 43300 [3]): 0.125 µg/mL (≈ 0.221 µM)
MIC (S. aureus ATCC 29213 [4]): 0.125 µg/mL (≈ 0.221 µM)
MBC (S. aureus ATCC 29213 [4]): 0.125 µg/mL (≈ 0.221 µM)
